Several values for one entry are separate records, joined by “and”; a condition that tells them apart may be missing. Equal values may be shown once. Read-outs that look alike come from different tables or passages of the source.
Columns and labels:
[1] = molecular target: T1, THIK-1 F142A (Homo sapiens, UniProt Q9HB14, F142A); test: Inside-out excised patch recordings, oocytes, THIK-1 F142A mutant; type: cell-based; conditions: read-out: TPenA IC50
T1 construct: expressed in transfected cells; host or cells: Xenopus oocytes (mRNA injection)
Text: Supplement 41594_2025_1497_MOESM2_ESM.xlsx, sheet "ExtData_Fig_S2c" | column: Normalized currents

[2] = molecular target: T2, human K2P12.1 THIK-2 (THIK-2*) (Homo sapiens, UniProt Q9HB15, R11A/R12A/R14A/R15A/R16A); test: Inside-out excised patch recordings, oocytes, THIK-2* (ER-retention mutant); type: cell-based; conditions: for Normalized currents: THIK-2* (unstimulated)
T2 construct: expressed in transfected cells; host or cells: Xenopus oocytes (mRNA injection)
T2 sequence (Q9HB15 1-430 R11A/R12A/R14A/R15A/R16A): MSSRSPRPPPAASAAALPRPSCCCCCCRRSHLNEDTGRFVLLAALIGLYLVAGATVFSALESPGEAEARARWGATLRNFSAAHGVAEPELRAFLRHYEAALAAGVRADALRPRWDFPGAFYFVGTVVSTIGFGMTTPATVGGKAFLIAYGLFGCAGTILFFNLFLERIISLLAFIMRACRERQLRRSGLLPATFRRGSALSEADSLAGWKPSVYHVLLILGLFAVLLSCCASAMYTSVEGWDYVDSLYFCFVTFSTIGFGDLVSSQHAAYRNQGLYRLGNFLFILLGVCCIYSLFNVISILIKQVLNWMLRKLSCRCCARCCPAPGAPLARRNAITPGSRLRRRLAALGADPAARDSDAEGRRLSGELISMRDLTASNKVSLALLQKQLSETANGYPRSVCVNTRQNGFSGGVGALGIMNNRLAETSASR
Text: Human K2P13.1 THIK-1 (GenBank accession number: NM_022054) and human K2P12.1 THIK-2 (NM_022055.1) were used in this study. For functional expression studies, the respective K^+ channel subtype coding sequences were subcloned into the oocyte expression vector pSGEM or the dual-purpose expression vector pFAW[41] and verified by sequencing. All mutant channels were obtained by site-directed mutagenesis and verified by sequencing. To increase surface expression and macroscopic currents, measurements of THIK-2 channels used a mutated ER retention motif, (R11A R12A R14A R15A R16A; THIK-2*)[20]. Vector DNA was linearized with NheI or MluI, and mRNA was synthesized in vitro using the SP6 or T7 AmpliCap Max High Yield Message Maker Kit (Cellscript, USA) or HiScribe T7 ARCA mRNA Kit (New England Biolabs).
Two-electrode voltage–clamp (TEVC) studies were performed in Xenopus oocytes. All animal use conformed to the Guide for the Care and Use of Laboratory Animals (NIH Publication 85–23), and all experiments using Xenopus toads were approved by the local ethics panels. Oocytes were stored at 17 °C in ND96 recording solution composed of (in mM): 96 NaCl, 2 KCl, 1.8 CaCl2, 1 MgCl2, 5 HEPES (pH 7.5 adjusted with NaOH and HCl), supplemented with Na-pyruvate (275 mg L^–1), theophylline (90 mg L^–1) and gentamicin (50 mg L^–1). Oocytes were injected with 1 ng mRNA for WT or mutant channels, and were incubated for 24–48 h at 17 °C. Two-electrode voltage clamp recordings were then performed as previously described[42],[43]. For macroscopic patch–clamp measurements, oocytes were obtained as described above incubated at 17 °C in a solution containing (mM): 54 NaCl, 30 KCl, 2.4 NaHCO3, 0.82 MgSO4 ×7 H2O, 0.41 CaCl2, 0.33 Ca(NO3)2 ×4 H2O and 7.5 TRIS (pH 7.4 adjusted with NaOH and HCl) for 1–4 days before use. Excised patch recordings in inside-out configuration conditions were performed at room temperature. Patch pipettes were made from thick-walled borosilicate glass GB 200TF-8P (Science Products), had resistances of 0.2–0.5 MΩ (tip diameter, 10–25 µm) and filled with a pipette solution (in mM): 120 KCl, 10 HEPES and 3.6 CaCl2 (pH 7.4 adjusted with KOH and HCl). Intracellular bath solutions and compounds were applied to the cytoplasmic side of excised patches for the various K^+ channels through a gravity flow multi-barrel pipette system. The intracellular solution had the following composition (in mM): 120 KCl, 10 HEPES, 2 EGTA and 1 pyrophosphate (pH adjusted with KOH and HCl). Currents were recorded with an EPC10 amplifier (HEKA Electronics) and sampled at 10 kHz or higher, with filtering set to 3 kHz (–3 dB) or higher, as appropriate for sampling rate. For measurements of GPCR activation, whole-cell currents were recorded for THIK-1 in transiently transfected HEK-293 cells. Cells were stimulated by a ramp protocol between −100 and +60 mV (holding potential, −80 mV). The pipette solution was composed of (in mM): 140 KCl, 2 MgCl2, 1 CaCl2, 2.5 EGTA and 10 HEPES (pH 7.3 adjusted with KOH and HCl). The extracellular bath solution had the following composition (in mM): 135 NaCl, 5 KCl, 2 MgCl2, 2 CaCl2, 10 glucose and 10 HEPES pH (pH 7.3 adjusted with NaOH and HCl). Oxotremorine M (Oxo-M) was added to extracellular bath solution to obtain the final concentration. Single-channel currents were recorded with an Axopatch 200B amplifier through a Digidata 1440A digitizer (Molecular Devices). Data were filtered at 2 kHz and recorded at a 200-kHz sampling rate with the program Clampex (Molecular Devices). Pipette solution and bath solution for cell-attached recordings contained (in mM): 140 KCl, 2 MgCl2, 1 CaCl2 and 10 HEPES (pH 7.4 adjusted with KOH and HCl). For inside-out recordings, the bath solution contained (in mM): 140 KCl, 2 MgCl2, 1 CaCl2 and 10 HEPES (pH 7.2 adjusted with KOH and HCl). All experiments were conducted at room temperature. […]

[3] = THIK-2* WT (unstimulated), mean
[4] = THIK-2* WT, individual recordings

T1 sequence (Q9HB14 whole entry F142A): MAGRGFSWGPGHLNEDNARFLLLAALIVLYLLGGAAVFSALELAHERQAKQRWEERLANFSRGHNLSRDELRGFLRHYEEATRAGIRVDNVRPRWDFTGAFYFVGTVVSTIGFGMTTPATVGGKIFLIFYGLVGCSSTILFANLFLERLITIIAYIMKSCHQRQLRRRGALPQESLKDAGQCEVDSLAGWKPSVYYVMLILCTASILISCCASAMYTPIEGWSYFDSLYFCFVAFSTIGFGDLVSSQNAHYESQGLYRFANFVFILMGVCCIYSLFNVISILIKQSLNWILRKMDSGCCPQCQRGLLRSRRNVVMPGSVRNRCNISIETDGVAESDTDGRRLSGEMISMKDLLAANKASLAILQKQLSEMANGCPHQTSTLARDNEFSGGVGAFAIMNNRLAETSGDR

SMILES: CCCCC[N+](CCCCC)(CCCCC)CCCCC [TPenA, tetrapentylammonium]
- IC50 ([1]; individual recordings): 239 µM and 187 µM and 498 µM and 367 µM
- IC50 ([1]; mean): 323 µM
- Normalized currents ([2]; 0.1 µM TPenA): 0.99
- Normalized currents ([2]; 1 µM TPenA): 0.98
- Normalized currents ([2]; 10 µM TPenA): 0.94
- Normalized currents ([2]; 100 µM TPenA): 0.71
- Normalized currents ([2]; 1000 µM TPenA): 0.41
- Normalized currents ([2]; 5000 µM TPenA): 0.35
- τ of 1 mM TPenA block [2, 3]: 3.83 s
- τ of 1 mM TPenA release [2, 3]: 3.40 s
- τ of 1 mM TPenA block [2, 4]: 5.710 s and 3.800 s and 2.660 s and 5.630 s and 4.260 s and 2.170 s and 2.560 s
- τ of 1 mM TPenA release [2, 4]: 4.580 s and 3.250 s and 3.550 s and 3.310 s and 3.680 s and 2.030 s
